# Laboratory results: patent US8961930B2, “Isatin derivatives for use as in vivo imaging agents” (Imperial Innovations Limited, priority 2008, dated 2015)
# What was measured:
# RIF-1 cells = assay: In vitro [^18F]11 uptake in RIF-1 cells; type: cell-based, murine
# Description: The human ovarian carcinoma cell lines PEO1/4 were established and characterised as described in Wolf C. R. et al.^22 and Langdon S. P. et al^23. Briefly, PEO1/4 cells were derived from the malignant ascites of a patient with a recurrent mucinous ovarian adenocarcinoma, before (PEO1) and after (PEO4) the onset of a clinical resistance to cisplatin chemotherapy in this patient. The radiation-induced murine fibrosarcoma (RIF-1) tumour cell line was originally characterised by Twentyman P. R. et al.^20. The LNM35 tumour cells are a highly lymphogenous metastatic subline of the human large pulmonary carcinoma NCI-H460 cell line, as described in Kozaki K. et al.^24. […]
# Cells were plated in triplicate in 12-well plates 2 or 3 days prior to the experiments and treated with the antineoplastic platinum-derived drug Cisplatin, 5-FU, the protein synthesis inhibitor cycloheximide (CHX) or the topoisomerase inhibitor etoposide (VP-16) (Sigma, UK) or corresponding vehicle at the indicated concentration and time. […] 260 μL of each sample were transferred in counting tubes and Fluorine-18 radioactivity was immediately determined using a Packard Cobra II gamma counter (Perkin Elmer, UK). […] BCA Protein assay (Pierce, UK) was performed for all samples and datas are normalized and expressed as CCPMA or RLU (Relative Light Unit)/mg of protein. […]
# PEO4 xenograft = assay: In vivo [^18F]11 biodistribution and PET imaging, PEO4 xenograft; set-up: species or system mice; details: for 60 min biodistribution, Bone / 60 min biodistribution, Kidney / 60 min biodistribution, L. Intestine / 60 min biodistribution, Liver / 60 min biodistribution, Lung / 60 min biodistribution, Muscle / 60 min biodistribution, S. Intestine / 60 min biodistribution, Spleen / 60 min biodistribution, Tumour: PEO4
# Description: In vivo tumour models were established by subcutaneous injection of PEO1/4 (10×10^6 cells, with v/v matrigel, BD Biosciences, Oxford, UK), RIF-1 (5×10^5 cells) and LNM35 (1×10^6 cells) on the back of 6-8 weeks old female nu/nu-BALB/c or male C3H/hej mice (Harlan, Bicester, Oxfordshire, UK). Tumour growth was monitored every two days using electronic callipers, and tumour volume estimated using (π/6)×L×W×D (L=length, W=width and D=depth). All animal work was done by licensed investigators in accordance with the United Kingdom's “Guidance on the Operation of Animals (Scientific Procedures) Act 1986” (HMSO, London, United Kingdom, 1990) and in full compliance with government regulations and guidelines on the welfare of animals in experimental neoplasia.
# For biodistribution studies, tumour-bearing mice were treated with 10 mg/kg cisplatin or vehicle for 24 h, anesthetized with isofluorane/O2/N2O and injected i.v. in the lateral tail vein with ˜100 μCi [^18F]11 for the indicated time. The different tissues were removed, weighted and placed in counting tubes for immediate Fluorine-18 radioactivity counting.
# Tumour-bearing mice treated with Cisplatin (10 mg/kg for 24 h) or vehicle were scanned on a dedicated small animal PET scanner (quad-HIDAC; Oxford Positron Systems, Weston-on-the-Green, United Kingdom). Anesthetized animals were placed within a thermostatically controlled bed and positioned prone within the scanner. The bed was calibrated to provide a mouse rectal temperature of ˜37° C. A bolus injection of [^18F]11 (˜100 μCi) was given intravenously (i.v.) via the tail vein cannula and scanning commenced. Dynamic emission scans were acquired in list-mode format over 60 minutes. The acquired data were then sorted into 0.5-mm sinogram bins and 19 time frames (0.5×0.5×0.5 mm voxels; 4×15, 4×60, and 11×300 seconds) for image reconstruction, which was done by filtered back projection using a two-dimensional Hamming filter (cutoff 0.6). The image data-sets obtained were transferred to a SUN workstation (Ultra 10; SUN Microsystems, Santa Clara, Calif.) and visualized using the Analyze software (version 6.0; Biomedical Imaging Resource, Mayo Clinic, Rochester, Minn.). Cumulative images of the dynamic data composed of 0 to 1 minute after injection and 30 to 60 minutes after injection were used for visualization of radiotracer uptake and to define the regions of interest (ROI). The count densities were averaged for each ROI at each of the 19 time points to obtain a time versus radioactivity curve (TAC) for the ROIs. Tumour TAC was normalized to that of heart at each of the time points to obtain the normalized uptake value (NUV). The [^18F]9 data from […] were used as internal input function for normalizing tumour data. […] FRT is a useful variable in that it indicates the proportion of radiotracer delivered to the tumour that is retained. It therefore normalizes tumor [^18F]9 uptake to delivery.
smiles,measurement,setting,value
"O=C1C(=O)N(Cc2cn(CC[18F])nn2)c2ccc(S(=O)(=O)N3CCC[C@H]3COc3ccc(F)cc3F)cc21 [[^18F]11, (S)-1-((1-(2-Fluoroethyl)-1H-[1,2,3]-triazol-4-yl)methyl)-5-(2(2,4-difluorophenoxymethyl)-pyrrolidine-1-sulfonyl)isatin]",increase in uptake in apoptotic cells,"RIF-1 cells; CDDP 100 μM 48 h vs vehicle, 1 h incubation",~1.5 fold
same,[^18F]11 uptake in drug-treated cells compared to control,"RIF-1 cells; CDDP or CHX 10 μg/mL 24 h, 60 min uptake",significantly increased
same,"60 min biodistribution, Bone",PEO4 xenograft; CDDP treated,1.44 ± 0.66
same,"60 min biodistribution, Bone",PEO4 xenograft; Control,1.12 ± 0.47
same,uptake in the tumour of CDDP treated vs control mice,"PEO4 xenograft; CDDP-resistant PEO4 tumours, 60 min",not showing differences in uptake between control and treated
same,PET image: uptake in the tumour,"PEO4 xenograft; CDDP-treated mouse, PEO4 xenograft, 30-60 min",significant uptake
same,"60 min biodistribution, Kidney",PEO4 xenograft; CDDP treated,7.96 ± 3.34
same,"60 min biodistribution, Kidney",PEO4 xenograft; Control,8.04 ± 4.24
same,"60 min biodistribution, L. Intestine",PEO4 xenograft; CDDP treated,2.89 ± 0.93
same,"60 min biodistribution, L. Intestine",PEO4 xenograft; Control,2.40 ± 1.88
same,"60 min biodistribution, Liver",PEO4 xenograft; CDDP treated,8.22 ± 2.89
same,"60 min biodistribution, Liver",PEO4 xenograft; Control,6.71 ± 1.56
same,"60 min biodistribution, Lung",PEO4 xenograft; CDDP treated,4.73 ± 1.78
same,"60 min biodistribution, Lung",PEO4 xenograft; Control,3.31 ± 0.83
same,"60 min biodistribution, Muscle",PEO4 xenograft; CDDP treated,1.13 ± 0.22
same,"60 min biodistribution, Muscle",PEO4 xenograft; Control,0.88 ± 0.36
same,"60 min biodistribution, S. Intestine",PEO4 xenograft; CDDP treated,10.43 ± 14.36
same,"60 min biodistribution, S. Intestine",PEO4 xenograft; Control,10.37 ± 10.58
same,"60 min biodistribution, Spleen",PEO4 xenograft; CDDP treated,1.81 ± 0.80
same,"60 min biodistribution, Spleen",PEO4 xenograft; Control,1.26 ± 0.45
same,"60 min biodistribution, Tumour",PEO4 xenograft; CDDP treated,2.15 ± 0.79
same,"60 min biodistribution, Tumour",PEO4 xenograft; Control,1.66 ± 0.41
